How the values were obtained:
NLRP3 inflammasome = details: previously characterised weak NLRP3 inhibitors; nonspecific; cited from earlier work
NLRP3 [1] = target: T1, NLRP3 (Homo sapiens, UniProt Q96P20); assay: Human whole blood IL1β release assay; assay type: cell-based; details: LPS 1 μg/ml, nigericin 10 μM, IL-1β AlphaLisa, 10 μM top dose (Example 2: top dose of 30 μM), read-out: HWB IC50
Procedure, shortened: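 Healthy-donor heparinised human whole blood with 1 μg/ml LPS, compound (8-point half-log dilution, 10 μM top dose unless stated; 0.1% DMSO vehicle) for 3 h at 37 °C, then nigericin 10 μM final for 1 h. Supernatant IL-1β by AlphaLISA; IC50 from 4-parameter variable-slope fit.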

NLRP3 [2] = target: T1, NLRP3; assay: THP-1 cells pyroptosis assay; assay type: cell-based; design: Seed THP-1 cells (25,000 cells/well) containing 1.0 μg/ml LPS; host or cells: THP-1; details: LPS 1.0 μg/ml, nigericin 5 μM, resazurin readout, 10 μM top dose (Example 2: top dose of 30 μM)
Procedure, shortened: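 Pyroptosis induced by 5 μM nigericin (1 h) in LPS-primed (1 μg/ml) THP-1 cells, 25,000/well in serum-free RPMI, after 3 h compound pre-treatment (8 points, 10 μM top unless stated). Surviving cells measured with 100 μM resazurin, Ex 560/Em 590; IC50 via variable-slope 4-parameter regression.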

[3] = PK, intravenous administration; assay type: in vivo; details: rat, plasma, male Sprague Dawley rats, dose about 1 mg/kg; for Vd: read-out: Vdss
Procedure, shortened: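 Male Sprague Dawley rats (6-9 weeks); IV dosing via tail vein as solution in DMSO:water or DMSO:PBS (10:90), oral dosing in 0.5% methylcellulose after overnight fasting. Plasma sampled at 8 time-points to 24 h; parameters derived from LC-MS/MS data.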

PK, oral administration = assay type: in vivo, male Sprague Dawley rats; details: male, Sprague Dawley, plasma, rat, 3 mg/kg
Description: Pharmacokinetic parameters were determined in male Sprague Dawley rats (Vital River Laboratory Animal Technology Co Ltd, Beijing, China, 6-9 weeks old). Animals were maintained under a 12 h light/dark cycle. Animals had free access to food and water, except that orally dosed animals were food deprived overnight prior to the study.
For intravenous administration, compounds were formulated as a solution (in DMSO:water [10:90] or in DMSO:PBS [10:90]) in 2 mL/kg dosing volume and administered via tail vein. For oral administration, compounds were formulated as a solution (in 0.5% methylcellulose in water) in […] dosing volume and administered orally.
Serial blood samples (about 200 μL) were taken from each animal at each of 8 time-points post dose ([…], 0.25, 0.5, 1, 2, 4, 8 and 24 h). Samples were held on ice for no longer than 30 minutes before centrifugation (5,696 rpm (3,000 g) for 15 minutes) for plasma generation. Plasma was frozen on dry ice prior to bioanalysis. PK parameters were generated from LC-MS/MS data using Phoenix WinNonlin 6.3 software.

T1 sequence (Q96P20 whole entry): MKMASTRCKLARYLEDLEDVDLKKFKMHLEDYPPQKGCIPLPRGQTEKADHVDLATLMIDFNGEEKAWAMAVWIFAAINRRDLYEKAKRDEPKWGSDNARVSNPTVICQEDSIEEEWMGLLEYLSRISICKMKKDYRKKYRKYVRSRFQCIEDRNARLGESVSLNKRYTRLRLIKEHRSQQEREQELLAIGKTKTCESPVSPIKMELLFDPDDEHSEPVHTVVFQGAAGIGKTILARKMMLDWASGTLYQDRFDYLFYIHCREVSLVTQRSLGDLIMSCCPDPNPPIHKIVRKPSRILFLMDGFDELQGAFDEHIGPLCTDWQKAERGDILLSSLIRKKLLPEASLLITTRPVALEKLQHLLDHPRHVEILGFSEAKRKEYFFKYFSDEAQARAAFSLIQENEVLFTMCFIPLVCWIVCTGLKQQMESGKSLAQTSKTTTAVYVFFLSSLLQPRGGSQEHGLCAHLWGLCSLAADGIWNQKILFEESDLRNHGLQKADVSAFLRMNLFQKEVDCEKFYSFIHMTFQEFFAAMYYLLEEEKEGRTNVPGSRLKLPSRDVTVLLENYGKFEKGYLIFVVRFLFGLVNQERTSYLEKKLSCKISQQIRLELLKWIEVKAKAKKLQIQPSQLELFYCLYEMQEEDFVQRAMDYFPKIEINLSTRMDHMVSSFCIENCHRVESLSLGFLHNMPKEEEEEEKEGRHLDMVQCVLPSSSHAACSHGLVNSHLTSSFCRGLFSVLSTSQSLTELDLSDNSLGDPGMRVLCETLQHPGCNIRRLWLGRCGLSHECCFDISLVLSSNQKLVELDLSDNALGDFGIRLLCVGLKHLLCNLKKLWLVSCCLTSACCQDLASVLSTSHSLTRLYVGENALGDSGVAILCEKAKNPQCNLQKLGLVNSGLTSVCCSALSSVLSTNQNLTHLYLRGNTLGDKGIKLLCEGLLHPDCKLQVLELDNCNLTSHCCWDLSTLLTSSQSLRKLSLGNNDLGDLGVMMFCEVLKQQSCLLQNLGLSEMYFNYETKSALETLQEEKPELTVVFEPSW

| IC50 (NLRP3 [1]) | IC50 (NLRP3 [2]) | AUC [3] | clearance [3] | half-life [3] | Vd [3] | AUC (PK, oral administration) | CL/F (PK, oral administration) | Cmax (PK, oral administration) | Tmax (PK, oral administration) | bioavailability (PK, oral administration) | half-life (PK, oral administration) | SMILES | NLRP3 inhibition (NLRP3 inflammasome) |
| --- | --- | --- | --- | --- | --- | --- | --- | --- | --- | --- | --- | --- | --- |
|  |  |  |  |  |  |  |  |  |  |  |  | C[S+](C)[O-] [dimethyl sulfoxide] | limited potency |
|  |  |  |  |  |  |  |  |  |  |  |  | O=[N+]([O-])C=Cc1ccc2c(c1)OCO2 [3,4-methylenedioxy-β-nitrostyrene] | limited potency |
| ≤ 5000 nM | ≤ 5000 nM | 545 ng·h/mL | 30.6 mL/min/kg | 1.2 h | 1.59 L/kg |  |  |  |  |  |  | COc1cc(-c2cc(F)cc(C(C)C)c2Nc2nnc(S(=O)(=O)c3ccccc3)[nH]2)ccn1 [Example 45, N-(4-fluoro-2-isopropyl-6-(2-methoxypyridin-4-yl)phenyl)-3-(phenylsulfonyl)-1H-1,2,4-triazol-5-amine] |  |
| ≤ 500 nM | ≤ 500 nM | 271 ng·h/mL | 61.6 mL/min/kg | 1.64 h | 6.2 L/kg |  |  |  |  |  |  | CN1CCC2(C1)CN(S(=O)(=O)c1nnc(Nc3c4c(cc5c3CCC5)CCC4)[nH]1)C2 [Example 274, N-(1,2,3,5,6,7-hexahydro-s-indacen-4-yl)-5-((6-methyl-2,6-diazaspiro[3.4]octan-2-yl)sulfonyl)-4H-1,2,4-triazol-3-amine] |  |
| ≤ 500 nM | ≤ 500 nM | 216 ng·h/mL | 76.1 mL/min/kg | 0.19 h | 0.88 L/kg |  |  |  |  |  |  | CN1CCC2(C1)CN(S(=O)(=O)c1nnc(Nc3c(-c4ccnc(OC(F)F)c4)ccc4c3CCO4)[nH]1)C2 [Example 212, N-(5-(2-(difluoromethoxy)pyridin-4-yl)-2,3-dihydrobenzofuran-4-yl)-5-((6-methyl-2,6-diazaspiro[3.4]octan-2-yl)sulfonyl)-4H-1,2,4-triazol-3-amine] |  |
|  | ≤ 1000 nM | 602 ng·h/mL | 28 mL/min/kg | 0.7 h | 0.66 L/kg | 878 ng·h/mL | 61.5 mL/min/kg | 594 ng/mL | 0.25 h | 48.6% | 1.2 h | CN(C)Cc1ccc(S(=O)(=O)c2nnc(Nc3c4c(cc5c3CCC5)CCC4)[nH]2)cc1 [Example 43, 5-((4-((dimethylamino)methyl)phenyl)sulfonyl)-N-(1,2,3,5,6,7-hexahydro-s-indacen-4-yl)-4H-1,2,4-triazol-3-amine] |  |
| ≤ 500 nM | ≤ 500 nM | 278 ng·h/mL | 60 mL/min/kg | 1.8 h | 5.9 L/kg |  |  |  |  |  |  | CN1CCCC12CCN(S(=O)(=O)c1nnc(Nc3c4c(cc5c3CCC5)CCC4)[nH]1)CC2 [Example 278, N-(1,2,3,5,6,7-hexahydro-s-indacen-4-yl)-5-((1-methyl-1,8-diazaspiro[4.5]decan-8-yl)sulfonyl)-4H-1,2,4-triazol-3-amine] |  |
| ≤ 5000 nM | ≤ 500 nM | 392 ng·h/mL | 55.2 mL/min/kg | 0.26 h | 0.6 L/kg |  |  |  |  |  |  | COc1cc(-c2cc(F)cc(C(C)C)c2Oc2nnc(S(=O)(=O)N3CC4(CCN(C)C4)C3)[nH]2)ccn1 [Example 250, 2-((5-(4-fluoro-2-isopropyl-6-(2-methoxypyridin-4-yl)phenoxy)-4H-1,2,4-triazol-3-yl)sulfonyl)-6-methyl-2,6-diazaspiro[3.4]octane] |  |
| ≤ 10000 nM | ≤ 5000 nM | 1000 ng·h/mL | 16.7 mL/min/kg | 0.5 h | 0.56 L/kg |  |  |  |  |  |  | CS(=O)(=O)c1nnc(Nc2c3c(cc4c2CCC4)CCC3)[nH]1 [Example 75, N-(1,2,3,5,6,7-hexahydro-s-indacen-4-yl)-5-(methylsulfonyl)-4H-1,2,4-triazol-3-amine] |  |
| ≤ 500 nM | ≤ 500 nM | 239 ng·h/mL | 69.7 mL/min/kg | 1.94 h | 7.51 L/kg |  |  |  |  |  |  | CN1CCC2(CCN(S(=O)(=O)c3nnc(Nc4c5c(cc6c4CCC6)CCC5)[nH]3)CC2)C1 [Example 276, N-(1,2,3,5,6,7-hexahydro-s-indacen-4-yl)-5-((2-methyl-2,8-diazaspiro[4.5]decan-8-yl)sulfonyl)-4H-1,2,4-triazol-3-amine] |  |
| ≤ 1000 nM | ≤ 1000 nM | 354 ng·h/mL | 47.1 mL/min/kg | 1.3 h | 3.21 L/kg |  |  |  |  |  |  | CN(C)CCNS(=O)(=O)c1nnc(Nc2c3c(cc4c2CCC4)CCC3)[nH]1 [Example 94, N-(2-(dimethylamino)ethyl)-5-((1,2,3,5,6,7-hexahydro-s-indacen-4-yl)amino)-4H-1,2,4-triazole-3-sulfonamide] |  |
| ≤ 1000 nM | ≤ 500 nM | 221 ng·h/mL | 75 mL/min/kg | 3.53 h | 14.9 L/kg |  |  |  |  |  |  | CN(C)C1CCCN(S(=O)(=O)c2nnc(Nc3c4c(cc5c3CCC5)CCC4)[nH]2)CC1 (stereo not shown) [Example 271, 1-((5-((1,2,3,5,6,7-hexahydro-s-indacen-4-yl)amino)-4H-1,2,4-triazol-3-yl)sulfonyl)-N,N-dimethylazepan-4-amine] |  |
| ≤ 5000 nM | ≤ 500 nM | 277 ng·h/mL | 60 mL/min/kg | 2.57 h | 5.03 L/kg |  |  |  |  |  |  | CCN(CC)CCCS(=O)(=O)c1nnc(Nc2c(-c3ccnc(OC)c3)cc(F)cc2C(C)C)[nH]1 [Example 79, 5-((3-(diethylamino)propyl)sulfonyl)-N-(4-fluoro-2-isopropyl-6-(2-methoxypyridin-4-yl)phenyl)-4H-1,2,4-triazol-3-amine] |  |
| ≤ 10000 nM | ≤ 1000 nM | 273 ng·h/mL | 61.1 mL/min/kg | 1.3 h | 2.7 L/kg |  |  |  |  |  |  | CNCCCS(=O)(=O)c1nnc(Nc2c3c(cc4c2CCC4)CCC3)[nH]1 [Example 54, N-(1,2,3,5,6,7-hexahydro-s-indacen-4-yl)-5-((3-(methylamino)propyl)sulfonyl)-4H-1,2,4-triazol-3-amine] |  |
| ≤ 500 nM | ≤ 500 nM | 182 ng·h/mL | 78.1 mL/min/kg | 0.25 h | 1.02 L/kg |  |  |  |  |  |  | COc1cc(-c2ccc3c(c2Nc2nnc(S(=O)(=O)N4CC5(CCN(C)C5)C4)[nH]2)CCO3)ccn1 [Example 214, N-(5-(2-methoxypyridin-4-yl)-2,3-dihydrobenzofuran-4-yl)-5-((6-methyl-2,6-diazaspiro[3.4]octan-2-yl)sulfonyl)-4H-1,2,4-triazol-3-amine] |  |
| ≤ 500 nM | ≤ 500 nM | 195 ng·h/mL | 103 mL/min/kg | 1.33 h | 5.21 L/kg |  |  |  |  |  |  | COc1cc(-c2cc(F)c3c(c2Nc2nnc(S(=O)(=O)N4CC5(CCN(C)C5)C4)[nH]2)CCC3)ccn1 [Example 299, N-(7-fluoro-5-(2-methoxypyridin-4-yl)-2,3-dihydro-1H-inden-4-yl)-5-((6-methyl-2,6-diazaspiro[3.4]octan-2-yl)sulfonyl)-4H-1,2,4-triazol-3-amine] |  |
